Results taken from US20040009964A1, “Compositions and methods for the treatment of matrix metalloproteinase-related diseases” (BioInterface Technologies, Inc., priority 2002, published 2004).
“Also recorded” adds a separate entry of the source.

Tests used:
[1] = target: human neutrophil collagenase (Homo sapiens, UniProt P22894); conditions: cited from earlier work; for Effect of metal ion binding on collagenase activity: binding to human neutrophil collagenase
[2] = tested on: matrix metalloproteinase; conditions: synoviocyte MMP activity; cited from earlier work
[3] = tested on: E. coli (ATCC 25922); conditions: overnight at 37° C., dilutions 1.95 to 250 μg/ml
Description: (§1) In vitro antimicrobial activity was calculated by determining the minimum inhibitory concentration (MIC) for a silver thiosulfate ion complex composition; for example, the silver thiosulfate ion complex produced according to Example 3. The antimicrobial activity of this embodiment was determined by using serial two-fold dilutions ranging from 1.95 to 250 μg/ml using tryptic soy broth (Difco) as a diluent. Each dilution was inoculated with a 0.005 ml aliquot from a 24-hour microbial growth culture having a concentration of approximately 10^5 to 10^7 CFU/ml. The dilutions were incubated overnight at 37° C. The MIC was determined by identifying the lowest dilution (expressed as μg/ml) of the silver thiosulfate ion complex that was without evidence of growth (i.e. was not cloudy).

[4] = tested on: S. epidermidis (ATCC 12228); conditions: overnight at 37° C., dilutions 1.95 to 250 μg/ml
Description: as §1

[5] = tested on: P. aeruginosa (ATCC 27853); conditions: overnight at 37° C., dilutions 1.95 to 250 μg/ml
Description: as §1

[6] = tested on: S. aureus (ATCC 25923); conditions: overnight at 37° C., dilutions 1.95 to 250 μg/ml
Description: as §1

Sequence of human neutrophil collagenase (P22894 101-467): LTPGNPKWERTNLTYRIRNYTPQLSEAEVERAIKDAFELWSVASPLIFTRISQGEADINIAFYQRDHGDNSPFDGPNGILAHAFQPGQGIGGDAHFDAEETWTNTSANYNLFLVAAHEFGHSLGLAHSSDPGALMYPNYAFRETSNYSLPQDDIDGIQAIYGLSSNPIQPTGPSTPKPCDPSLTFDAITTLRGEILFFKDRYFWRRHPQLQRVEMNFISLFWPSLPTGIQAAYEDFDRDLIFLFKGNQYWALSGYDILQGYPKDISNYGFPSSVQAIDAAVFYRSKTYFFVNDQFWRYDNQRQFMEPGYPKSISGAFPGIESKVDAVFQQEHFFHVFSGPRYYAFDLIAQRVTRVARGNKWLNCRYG

Compound: [Ag+] [Ag(I)]
- Direct inhibition of matrix metalloproteinase ([1]; Ag(I) concentrations up to 10 μM, higher concentrations precipitated in the culture media): did not directly inhibit

Compound: [Au+] [Au(I)]
- Effect of metal ion binding on collagenase activity [1]: noncompetitive inhibition; also recorded: collagenase inhibition

Compound: [Cd+2] [Cd(II)]
- Effect of metal ion binding on collagenase activity [1]: noncompetitive inhibition; also recorded: collagenase inhibition

Compound: [Cu+2] [Cu(II)]
- Effect of metal ion binding on collagenase activity [1]: noncompetitive inhibition; also recorded: collagenase inhibition

Compound: [Hg+2] [Hg(II)]
- Effect of metal ion binding on collagenase activity [1]: collagenase inhibition

Compound: [Zn+2] [Zn(II)]
- Effect of metal ion binding on collagenase activity [1]: retention of activity

Compound: O=[N+]([O-])[O-].O=[N+]([O-])[O-].O=[N+]([O-])[O-].[Ga+3] [gallium nitrate]
- Inhibition of matrix metalloproteinase activity [2]: can inhibit matrix metalloproteinase activity

Compound: Na4[Ag2(S2O3)3]H2O [Silver Thiosulfate Ion Complexes]
- MIC [3]: <1.95 µg/mL
- MIC [4]: <1.95 µg/mL
- MIC [5]: <1.95 µg/mL
- MIC [6]: <1.95 µg/mL
